Experimental data reported in patent US8846570B2, “Herbicidal compositions comprising 4-amino-3-chloro-5-fluoro-6-(4-chloro-2-fluoro-3-methoxyphenyl)pyridine-2-carboxylic acid or a derivative thereof and microtubule inhibiting herbicides” (Dow AgroSciences LLC, priority 2012, dated 2014).

Assays:
Test in all cases: In-water applied, transplanted paddy rice, greenhouse: visual weed control
Format in all cases: in vivo
[1] = tested on: Echinochloa crus-galli (L.) Beauv. (ECHCG); conditions: 21 DAA
Protocol: (§1) Weed seeds or nutlets of the desired test plant species were planted in puddled soil (mud) prepared by mixing a shredded, non-sterilized mineral soil (50.5 percent silt, 25.5 percent clay, and 24 percent sand, with a pH of about 7.6 and an organic matter content of about 2.9 percent) and water at a 1:1 volumetric ratio. The prepared mud was dispensed in 365 mL aliquots into 16-ounce (oz.) non-perforated plastic pots with a surface area of 86.59 square centimeters (cm^2) leaving a headspace of 3 centimeters (cm) in each pot. Mud was allowed to dry overnight prior to planting or transplanting. Rice seeds were planted in Sun Gro MetroMix® 306 planting mixture, which typically has a pH of 6.0 to 6.8 and an organic matter content of about 30 percent, in plastic plug trays. Seedlings at the second or third leaf stage of growth were transplanted into 860 mL of mud contained in 32-oz. non-perforated plastic pots with a surface area of 86.59 cm^2 4 days prior to herbicide application. The paddy was created by filling the headspace of the pots with 2.5 to 3 cm of water. When required to ensure good germination and healthy plants, a fungicide treatment and/or other chemical or physical treatment was applied. The plants were grown for 4-22 days in a greenhouse with an approximate 14 h photoperiod which was maintained at about 29° C. during the day and 26° C. during the night. Nutrients were added as Osmocote® (19:6:12, N:P:K+minor nutrients) at 2 g per 16.-oz. pot and 4 g per 32-oz. pot. Water was added on a regular basis to maintain the paddy flood, and supplemental lighting was provided with overhead metal halide 1000-Watt lamps as necessary. The plants were employed for testing when they reached the first through fourth true leaf stage.
(§2) Treatments consisted of the acid or esters of 4-amino-3-chloro-5-fluoro-6-(4-chloro-2-fluoro-3-methoxy-phenyl)pyridine-2-carboxylic acid (compound A) each formulated as an SC and various herbicidal components alone and in combination. Forms of compound A were applied on an acid equivalent basis.
(§3) Treatment requirements for each compound or herbicidal component were calculated based upon the rates being tested, the concentration of active ingredient or acid equivalent in the formulation, an application volume of 2 mL per component per pot, and an application area of 86.59 cm^2 per pot.
(§4) For formulated compounds, a measured amount was placed in an individual 100 or 200 mL glass vial and was dissolved in a volume of 1.25% (v/v) Agri-Dex® crop oil concentrate to obtain application solutions.
(§5) For technical grade compounds, a weighed amount was placed in an individual 100 to 200 mL glass vial and was dissolved in a volume of acetone to obtain concentrated stock solutions. […] The concentrated stock solutions obtained were diluted with an equivalent volume of an aqueous mixture containing 2.5% (v/v) crop oil concentrate so that the final application solutions contained 1.25% (v/v) crop oil concentrate.
(§6) Applications were made by injecting, with a pipetter, appropriate amounts of the application solutions into the aqueous layer of the paddy. Control plants were treated in the same manner with the solvent blank. Applications were made so that all treated plant material received the same concentrations of acetone and crop oil concentrate.
(§7) The treated plants and control plants were placed in a greenhouse as described above and water was added as needed to maintain a paddy flood. After approximately 3 weeks the condition of the test plants as compared with that of the untreated plants was determined visually and scored on a scale of 0 to 100 percent where 0 corresponds to no injury or growth inhibition and 100 corresponds to complete kill.
(§8) Colby's equation was used to determine the herbicidal effects expected from the mixtures (Colby, S. R. 1967. Calculation of the synergistic and antagonistic response of herbicide combinations. Weeds 15:20-22.). […]

[2] = tested on: Echinochloa oryzoides (Ard.) Fritsch (ECHOR); conditions: 21 DAA
Protocol: as §1, §2, §3, §4, §5, §6, §7, §8

[3] = tested on: Schoenoplectus Maritimes (L.) Lye (SCPMA); conditions: 21 DAA
Protocol: as §1, §2, §3, §4, §5, §6, §7, §8

[4] = tested on: Leptochloa chinensis (L.) Nees (LEFCH); conditions: 21 DAA
Protocol: as §1, §2, §3, §4, §5, §6, §7, §8

[5] = tested on: Cyperus rotundus L. (CYPRO)
Protocol: as §1, with “When required to ensure good germination and healthy plants, a fungicide treatment and/or other chemical or physical treatment was applied. The plants were grown for 4-22 days in a greenhouse with an approximate 14 h photoperiod which was maintained at about 29° C. during the day and 26° C. during the night.” left out
Forms of compound A were applied on an acid equivalent basis.
as §4, §5, §6, §7
Colby's equation was used to determine the herbicidal effects expected from the mixtures (Colby, S. R. 1967. Calculation of the synergistic and antagonistic response of herbicide combinations. Weeds 15:20-22.).
The following equation was used to calculate the expected activity of mixtures containing two active ingredients, A and B: Expected=A+B−(A×B/100)

## COc1c(Cl)ccc(-c2nc(C(=O)OCc3ccccc3)c(Cl)c(N)c2F)c1F [Compound A Benzyl Ester, benzyl ester of 4-amino-3-chloro-5-fluoro-6-(4-chloro-2-fluoro-3-methoxy-phenyl)pyridine-2-carboxylic acid]
[1]; 4.38 g ae/ha
  Visual Weed Control (%) Obs: 0%
[1]; 8.75 g ae/ha
  Visual Weed Control (%) Obs: 0%
[1]; 17.5 g ae/ha
  Visual Weed Control (%) Obs: 25%
[2]; 4.38 g ae/ha
  Visual Weed Control (%) Obs: 40%
[2]; 8.75 g ae/ha
  Visual Weed Control (%) Obs: 60%
[2]; 17.5 g ae/ha
  Visual Weed Control (%) Obs: 75%
[3]; 4.38 g ae/ha
  Visual Weed Control (%) Obs: 0%
[3]; 8.75 g ae/ha
  Visual Weed Control (%) Obs: 0%
[3]; 17.5 g ae/ha
  Visual Weed Control (%) Obs: 0%
[4]; 35 g ae/ha
  Visual Weed Control (%) Obs: 50%
[4]; 70 g ae/ha
  Visual Weed Control (%) Obs: 50%
[5]; 20 DAA, 4.38 g ae/ha
  Visual Weed Control (%) Obs: 50%
[5]; 20 DAA, 8.75 g ae/ha
  Visual Weed Control (%) Obs: 0%
[5]; 20 DAA, 17.5 g ae/ha
  Visual Weed Control (%) Obs: 90%
[5]; 21 DAA, 8.75 g ae/ha
  Visual Weed Control (%) Obs: 0%
[5]; 21 DAA, 17.5 g ae/ha
  Visual Weed Control (%) Obs: 0%

## CCC(CC)Nc1c([N+](=O)[O-])cc(C)c(C)c1[N+](=O)[O-] [Pendimethalin, N-(1-ethylpropyl)-3,4-dimethyl-2,6-dinitrobenzenamine, reference compound]
[1]; 280 g ai/ha
  Visual Weed Control (%) Obs: 20%
[1]; 560 g ai/ha
  Visual Weed Control (%) Obs: 0%
[3]; 560 g ai/ha
  Visual Weed Control (%) Obs: 0%
[4]; 280 g ai/ha
  Visual Weed Control (%) Obs: 40%
[4]; 1120 g ai/ha
  Visual Weed Control (%) Obs: 48%
[5]; 21 DAA, 280 g ai/ha
  Visual Weed Control (%) Obs: 0%
[5]; 21 DAA, 560 g ai/ha
  Visual Weed Control (%) Obs: 0%

## COc1c(Cl)ccc(-c2nc(C(=O)O)c(Cl)c(N)c2F)c1F [Compound A Acid, 4-amino-3-chloro-6-(4-chloro-2-fluoro-3-methoxyphenyl)-5-fluoropyridine-2-carboxylic acid]
[1]; 8.75 g ae/ha
  Visual Weed Control (%) Obs: 0%
[1]; 17.5 g ae/ha
  Visual Weed Control (%) Obs: 0%
[1]; 35 g ae/ha
  Visual Weed Control (%) Obs: 20%
[2]; 8.75 g ae/ha
  Visual Weed Control (%) Obs: 10%
[2]; 17.5 g ae/ha
  Visual Weed Control (%) Obs: 40%
[2]; 35 g ae/ha
  Visual Weed Control (%) Obs: 40%
[3]; 8.75 g ae/ha
  Visual Weed Control (%) Obs: 0%
[3]; 17.5 g ae/ha
  Visual Weed Control (%) Obs: 0%
[3]; 35 g ae/ha
  Visual Weed Control (%) Obs: 0%
[4]; 8.75 g ae/ha
  Visual Weed Control (%) Obs: 0%
[4]; 17.5 g ae/ha
  Visual Weed Control (%) Obs: 0%
[4]; 35 g ae/ha
  Visual Weed Control (%) Obs: 30%
[5]; 20 DAA, 10.6 g ae/ha
  Visual Weed Control (%) Obs: 10%
[5]; 20 DAA, 21.2 g ae/ha
  Visual Weed Control (%) Obs: 20%

## CSC(=O)c1c(C(F)F)nc(C(F)(F)F)c(C(=O)SC)c1CC(C)C [Dithiopyr, S,S′-dimethyl-2-(difluoromethyl)-4-(2-methylpropyl)-6-(trifluoromethyl)-3,5-pyridinedicarbothioate]
[2]; 70 g ai/ha
  Visual Weed Control (%) Obs: 30%
[3]; 70 g ai/ha
  Visual Weed Control (%) Obs: 0%
